These results are taken from patent US20240141291A1, “FUNCTIONAL BRAIN REGION-SPECIFIC NEURAL SPHEROIDS AND METHODS OF USE” (THE UNITED STATES OF AMERICA, AS REPRESENTED BY THE …, priority 2021, published 2024).

Entries after “also recorded” stand apart in the source; their conditions may differ.

The subject of the first assay is A53T VTA-like spheroids. Kind of assay: Parkinson's Disease model, FLIPR calcium activity after compound treatment. It counts as cell-based, human. The settings on record: 90-min after treatment. The procedure: (§1) Fluorescent Imaging plate Reader (FLIPR): The FLIPR Penta (Molecular Devices) was used to assess calcium fluorescence across the 384-well plate simultaneously and to observe changes after treatment with compounds. The evening before calcium activity was measured, plates were sealed with parafilm and centrifuged at 1485×g for 2-min to get spheroids to the bottom of the well in a centered position. On the day of recording, the plate used for recording was placed in the read plate position inside of the FLIPR following the 2-hour Cal6 incubation at 37° C. Standard filter sets were used for Cal6 imaging with excitation set at 470-495 and emission at 515-575 nm. Fluorescent image reads were taken every 0.6 seconds for all plates, with exposure time of 0.03 and 50% excitation intensity. Recordings from the initial seven plates consisted of 1000 reads and were 10-min recordings with 2.5 gain, while the final two plates consisted of 500 reads (5-min recordings) with a gain of 2. Baseline recordings were taken across all plates and, if applicable, more recordings were obtained 1-, 30-, 60-, and/or 90-min after compound treatment. In between recordings, plates were wrapped in foil and placed back in the incubator at 37° C.
(§2) 384 Pin Tool: A 384 well pin tool (Rexroth) was used to transfer compounds simultaneously to the spheroid plate. Prior to compound transfer, the pin tool went through four wash cycles where pins were rinsed with dimethyl sulfoxide (DMSO), followed by methanol, then deionized (DI) water, to ensure the pins were clean. Compound transfer via the 384 well pin tool occurred after the baseline recordings with the fluorescent imaging plate reader (FLIPR). Here, 60 nL of compound suspended in DMSO was transferred to 60 µL of media in each well, diluting the compounds by 1000-fold and giving a final DMSO concentration of 0.1%. Immediately after compound transfer, the spheroid plate was either placed back inside of the FLIPR for a recording 1-min after compound treatment or placed back in the incubator if post-treatment recording was >30-min after compound transfer.
Calcium Activity Analysis: Calcium oscillatory peak detection data from FLIPR recordings was obtained through ScreenWorks 5.1 (Molecular Devices). Initial peak detection analysis occurred within ScreenWorks 5.1 via the PeakPro 2.0 module. Here, all parameters were set to be the same for all wells per plate. The event polarity was always set to positive and search vector length always set to 11. The baseline, trigger level, which is automatically set to 10% above the baseline, and dynamic threshold, which is the threshold for peak detection were automatically identified by the PeakPro 2.0 module. Wells were manually checked to ensure these parameters were accurately identified prior to analysis. After analysis, data from 18 peak parameters (mean peak amplitude, peak amplitude standard deviation (SD), peak count, mean peak rate, peak rate SD, peak spacing, peaking spacing SD, mean number of EAD-like peaks per well, CTD @ 50% (peak width at 50% amplitude), CTD @ 90% (peak width at 90% amplitude), rise slope, rise slope SD, mean peak rise time, peak rise time SD, decay slope, decay slope SD, mean peak decay time, and peak decay time SD) was exported to a STATALL file that could be converted to a Microsoft Excel spreadsheet. There, percent coefficient of variance (% CV) was calculated within each plate to measure how variable each parameter exported was. […] All data was normalized to the average of DMSO-treated control wells within each plate. […] Bar plots with individual values are reported as mean±SEM.
As for `CCCN(CCC)CCc1cccc2c1CC(=O)N2` [Ropinirole], the “effect on subpeak count” value is 3 and 10 μM, but not 1 μM, Ropinirole significantly reduced subpeak count.

The assay is the same for the next values; noted with them: 90-min after treatment, Ropinirole 1, 3 and 10 μM.
Turning to `OC(CCN1CCCCC1)(c1ccccc1)C1CCCCC1` (stereo not drawn) [Trihexyphenidyl], the “reversal of A53T-induced deficits (peak count, peak width)” value is given as “only Ropinirole was found to reverse this 90-min after treatment”.
Same read-out and setting: next, `C#CCN[C@@H]1CCc2ccccc21` [Rasagiline]: “only Ropinirole was found to reverse this 90-min after treatment”; `NC12CC3CC(CC(C3)C1)C2` [Amantadine]: “only Ropinirole was found to reverse this 90-min after treatment”; `CCCN(CCC)CCc1cccc2c1CC(=O)N2` [Ropinirole]: “significantly reduce peak count and increase peak width to the level that they were no longer significantly different from Wt DMSO-treated control spheroids; also recorded: restored deficits across all 3 peak measures”.
Still for that read-out and setting: next, `CN1[C@@H]2CC[C@H]1C[C@@H](OC(c1ccccc1)c1ccccc1)C2` [Benztropine]: “only Ropinirole was found to reverse this 90-min after treatment”; `N[C@@H](Cc1ccc(O)c(O)c1)C(=O)O` [L-Dopa]: “only Ropinirole was found to reverse this 90-min after treatment”; `Cc1ccc(C(=O)c2cc(O)c(O)c([N+](=O)[O-])c2)cc1` [Tolcapone]: “only Ropinirole was found to reverse this 90-min after treatment”.

The next assay relates to PFC-like spheroids. The assay is described as follows: FLIPR calcium activity with Cal6 dye, control compounds / DAMGO / AD compounds (Example 3). It counts as cell-based, human. The settings on record: Wt PFC-like spheroids; 90 min after treatment. The procedure: Viruses and dyes: To assess calcium activity, the calcium dye, Cal6 (Molecular Devices), and genetically encoded calcium indicator, GCaMP6f (Addgene, cat #100836-AAV9) were used. Cal6 was used according to manufacturer's instructions and 10 mL of maintenance media was added to each vial. Two hours before activity was recorded, half of the spheroid media was exchanged for media with Cal6. The plates were covered in foil and placed in the incubator at 37° C. during the 2-hour (hr) incubation period. Since all viruses used were adeno-associated viruses (AAV), they were added to the media on day 7 to allow for 2-weeks expression prior to recording or testing. All viruses were added to the media at 2e5 multiplicity of infection (MOI). GCaMP6f infection occurred via an adeno-associated virus serotype 9 (AAV9) expressed under the CAG promoter for expression in both neurons and astrocytes. Designer receptors exclusively activated by designer drugs (DREADDs) viruses were used to stimulate and inhibit neuronal activity within spheroids. Both viruses were retrograde AAVs expressed under the human Synapsin promoter for expression in neurons and fused with an mCherry fluorophore. The DREADDs viruses either inserted the designer receptor hM4D(Gi), an inhibitory G-protein coupled receptor, or hM3D(Gq), a stimulatory G-protein coupled receptor. Clozapine-N-oxide (CNO, Tocris cat #4936) was suspended in dimethyl sulfoxide (DMSO) and used as the designer drug to activate the DREADDs viruses. CNO was tested at 1 and 10 μM, with data reported from the 1 μM concentration.
as §1
DAMGO was reconstituted in water at a 1 mM concentration and diluted in media to 20 µM such that spheroids would be treated with a final concentration of 10 μM after the half media exchange. Two aspects of OUD were modeled, chronic treatment along with opioid withdrawal. For spheroids subjected to chronic DAMGO treatment, 20 μM DAMGO in maintenance media was added via half media exchange beginning on day 10, with treatments occurring every other day for 10 days, giving a total of five treatments.
as §2, with “0.1%.” for “0.1%. Immediately after compound transfer, the spheroid plate was either placed back inside of the FLIPR for a recording 1-min after compound treatment or placed back in the incubator if post-treatment recording was >30-min after compound transfer.”
Take `CCN(C)C(=O)Oc1cccc([C@H](C)N(C)C)c1` [Rivastigmine]: the “effect on peak count and spacing in Wt PFC-like spheroids” value is “differences were observed in all groups except Rivastigmine”.
